The target in data set [1] is T1, human adenosine A1 receptor (Homo sapiens, UniProt P30542).
T1 construct: host or cells: CHO cells (membranes)
T1 sequence (P30542 1-326): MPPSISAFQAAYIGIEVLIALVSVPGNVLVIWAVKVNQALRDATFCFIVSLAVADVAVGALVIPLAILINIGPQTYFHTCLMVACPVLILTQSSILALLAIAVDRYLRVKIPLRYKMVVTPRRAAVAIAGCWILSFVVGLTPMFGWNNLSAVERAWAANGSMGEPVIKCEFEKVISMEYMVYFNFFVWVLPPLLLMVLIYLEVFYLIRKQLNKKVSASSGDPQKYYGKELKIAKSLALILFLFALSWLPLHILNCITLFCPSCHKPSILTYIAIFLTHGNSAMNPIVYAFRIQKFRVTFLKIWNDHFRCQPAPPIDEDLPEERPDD
The data set can be described thus: Adenosine A1 receptor binding test (3H-DPCPX binding). Conditions: read-out: Inhibitory rate for human adenosine A1 receptor binding (3H-DPCPX binding). The text has this: Specifically, for example, human A1 receptor-expressing CHO cell membranes are used, and, as the labeled compound, for example, tritium-labeled DPCPX (1,3-dipropyl-8-cyclopentylxanthine) is used. The amount of non-specific binding can be determined by measuring the ^3H-DPCPX bound radioactivity in the presence of, for example, 100 μmol/L of R(−)-PIA((−)-N^6-2-phenylisopropyl adenosine).

For data set [2], the system named is MPTP-treated common marmoset that developed motor complication. The data set can be described thus: Test Example 4: combination with L-DOPA in MPTP-treated common marmoset that developed motor complication. The format is in vivo. Conditions: for duration (on-time) of anti-parkinsonian activities of L-DOPA / minimum disability score: gavage. How it is done: 10 mg/kg of L-DOPA (containing 2.5 mg/kg of benserazide hydrochloride) was administered by gavage to common marmoset that developed chronic parkinsonian symptoms by treatment with MPTP by the method described in Test Example 3 (MPTP-treated marmoset) twice a day at about 6 hr intervals. L-DOPA was repeatedly administered for more than 3 weeks to induction of motor complication (dyskinesia symptom, wearing-off phenomenon, on-off fluctuation and the like) in MPTP-treated marmoset in addition to parkinsonian symptoms, and the marmoset was used for the test. […] The locomotor activity was automatically measured using a computer by a measuring apparatus with a photocell. […] The subject animal was placed in an observation cage (with locomotor activity measuring apparatus) one day before the test compound administration for preconditioning to the environment. The symptoms of Parkinson's disease were continuously monitored through one-way mirror and disability score was scored each 10 min for 6 hr.

The test system of data set [3] is MPTP-treated common marmoset. Description: Test Example 3: combination with L-DOPA in MPTP-treated common marmoset, motor disability score. The class given is in vivo. The source says:
Parkinson's disease is a disease based on the progressive degeneration and loss of dopaminergic neuron in substantia nigra-striatum. In primates, a treatment with MPTP, which is a dopamine neurotoxin, causes selective degeneration and loss of dopaminergic neuron in substantia nigra-striatum and induces symptoms of akinesia, muscle rigidity and the like. The primates treated with MPTP are known as the model of Parkinson's disease [Proceedings of the National Academy of Science USA, vol. 80, p. 4546 (1983)]. In addition, common marmoset belongs to Haplorhini and is known to show the symptoms of Parkinson's disease by MPTP, like other Haplorhini [Neuroscience Letter, vol. 57, p. 37 (1985)]. […] The parkinsonian symptoms were judged using the index described in a previous report [Annales of Neurology, vol. 43, p. 507 (1998)]. All compounds were used as a suspension in 0.5% MC400, 10% aqueous sucrose solution. The subject animal was placed in an observation cage (with locomotor activity measuring apparatus) one day before the test compound administration for preconditioning to the environment. The symptoms of Parkinson's disease were continuously monitored through one-way mirror and disability score was scored each 10 min for 6 hr.
The locomotor activity was automatically measured using a computer by a measuring apparatus with a photocell.

Data set [4] has as its system MPTP-treated common marmoset that developed motor complication. Description: Test Example 5: influence on dyskinesia in MPTP-treated common marmoset that developed motor complication. The format is in vivo. Conditions: L-DOPA alone 1.25, 2.5, 5.0, 7.5 and 10 mg/kg (with benserazide hydrochloride). Here is the method: 10 mg/kg of L-DOPA (containing 2.5 mg/kg of benserazide hydrochloride) was administered to common marmoset that developed chronic parkinsonian symptoms by treatment with MPTP by the method described in Test Example 3 (MPTP-treated marmoset) twice a day at about 6 hr intervals. L-DOPA was repeatedly administered for more than 3 weeks to induction of motor complication (dyskinesia symptom, wearing-off phenomenon, on-off fluctuation and the like) in MPTP-treated marmoset in addition to parkinsonian symptoms, and the marmoset was used for the test. The dyskinesia severity was rating using the rating scale described in a previous report [[…] of Neurology, vol. 43, p. 507 (1998)] as in Test Example 2. […] The subject animal was placed in an observation cage (with locomotor activity measuring apparatus) one day before the test compound administration for preconditioning to the environment. The dyskinesia symptoms were observed through one-way mirror and scored each 20 min for 6 hr. [table] The locomotor activity was automatically measured using a computer by a measuring apparatus with a photocell.

Where [5] appears, read: 1 mg/kg compound combined with L-DOPA 2.5 mg/kg.

Here are results for two compounds from patent US10407440B2, “Therapeutic agent for motor disorders” (KYOWA HAKKO KIRIN CO., LTD., priority 2009, dated 2019).

Regarding `Cc1ccc(C(=O)Nc2nc(-c3ccco3)c(C(=O)C3CCOCC3)s2)cn1` [Compound (IC)], the inhibition at 0.1 µM in data set [1] came to 29%. Moreover, in data set [2] (setting [5]), the “duration (on-time) of anti-parkinsonian activities of L-DOPA” value is reported as “about 150 min” and the minimum disability score is recorded as 3.83±0.17. For the same compound, the “duration of anti-parkinsonian activity of L-DOPA” value in data set [3] (1 mg/kg compound co-administered orally with L-DOPA 2.5, 5.0, 7.5 and 10.0 mg/kg) was “prolonged the anti-parkinsonian activity of L-DOPA”. For the same compound, the “maximum effects of L-DOPA (minimum motor disability score)” value in data set [3] (1 mg/kg compound co-administered orally with L-DOPA 2.5, 5.0, 7.5 and 10.0 mg/kg, versus L-DOPA alone) is recorded as “enhanced maximum effects of L-DOPA alone”. In addition, in data set [3] (1 mg/kg compound plus 10 mg/kg L-DOPA orally, compared to 10 mg/kg L-DOPA alone), the “action expression time (on-time)” value is listed as “increased”.

Take `N[C@@H](Cc1ccc(O)c(O)c1)C(=O)O` [L-DOPA]: in data set [2] (L-DOPA 2.5 mg/kg alone), the “duration (on-time) of anti-parkinsonian activities of L-DOPA” value is recorded as “about 50 min” and the minimum disability score amounted to 5.33±0.80. Further, in data set [2] (L-DOPA alone 2.5 mg/kg or 10 mg/kg (with benserazide hydrochloride)), the parkinsonian symptoms entry is “decreased with the increasement of dosage”. Also, in data set [4], the dyskinesia entry is reported as “dyskinesia was induced”. Besides, the parkinsonian symptoms entry in data set [3] (L-DOPA alone 2.5, 5.0, 7.5 and 10.0 mg/kg (with 1/4 amount benserazide hydrochloride)) is “decreased within increasement of the dosage”.
